Measured values from ChEMBL document CHEMBL1150269, “Structural origin of selectivity in class II-selective histone deacetylase inhibitors” (J Med Chem, 2008).

Assays:
Histone deacetylase 9 = Histone deacetylase 9 (Homo sapiens, UniProt Q9UKV0); experiment: Inhibition of HDAC9
[1] = target: T1, Protein deacetylase HDAC6 (Homo sapiens, UniProt Q9UBN7); experiment: Inhibition of HDAC6
T1 sequence (Q9UBN7 whole entry): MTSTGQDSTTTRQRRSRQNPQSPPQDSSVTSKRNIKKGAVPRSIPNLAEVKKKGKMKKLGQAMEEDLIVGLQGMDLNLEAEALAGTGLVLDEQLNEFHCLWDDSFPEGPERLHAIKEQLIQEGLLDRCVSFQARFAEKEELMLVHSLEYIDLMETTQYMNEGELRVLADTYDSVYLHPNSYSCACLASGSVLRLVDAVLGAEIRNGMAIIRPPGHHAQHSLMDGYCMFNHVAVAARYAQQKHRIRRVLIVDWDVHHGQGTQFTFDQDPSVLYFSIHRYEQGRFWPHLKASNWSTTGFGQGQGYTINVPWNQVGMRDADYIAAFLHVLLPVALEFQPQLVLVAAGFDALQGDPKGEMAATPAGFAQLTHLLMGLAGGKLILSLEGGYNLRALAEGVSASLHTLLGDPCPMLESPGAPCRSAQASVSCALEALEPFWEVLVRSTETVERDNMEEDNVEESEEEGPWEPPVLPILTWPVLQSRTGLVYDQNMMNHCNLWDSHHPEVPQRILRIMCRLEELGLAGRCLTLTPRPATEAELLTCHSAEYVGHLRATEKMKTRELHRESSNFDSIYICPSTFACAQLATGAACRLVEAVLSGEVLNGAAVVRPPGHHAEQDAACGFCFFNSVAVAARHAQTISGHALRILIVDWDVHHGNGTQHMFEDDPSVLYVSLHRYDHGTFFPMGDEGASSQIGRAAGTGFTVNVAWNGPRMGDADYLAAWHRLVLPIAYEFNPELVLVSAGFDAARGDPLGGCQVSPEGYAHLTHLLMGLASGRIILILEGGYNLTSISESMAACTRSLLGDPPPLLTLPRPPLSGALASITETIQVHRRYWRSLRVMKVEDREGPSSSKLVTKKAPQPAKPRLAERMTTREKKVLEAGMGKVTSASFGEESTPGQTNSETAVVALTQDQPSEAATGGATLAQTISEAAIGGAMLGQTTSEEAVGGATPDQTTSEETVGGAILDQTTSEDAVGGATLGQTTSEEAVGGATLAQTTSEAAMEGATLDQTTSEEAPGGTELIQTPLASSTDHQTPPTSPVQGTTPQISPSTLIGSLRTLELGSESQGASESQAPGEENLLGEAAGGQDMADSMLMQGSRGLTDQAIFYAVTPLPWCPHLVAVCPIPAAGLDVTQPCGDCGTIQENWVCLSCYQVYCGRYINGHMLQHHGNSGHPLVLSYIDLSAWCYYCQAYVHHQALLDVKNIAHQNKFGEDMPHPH

Histone deacetylase 1 = Histone deacetylase 1 (Homo sapiens, UniProt Q13547); experiment: Inhibition of HDAC1
Chain of Histone deacetylase 1 (Q13547 whole entry): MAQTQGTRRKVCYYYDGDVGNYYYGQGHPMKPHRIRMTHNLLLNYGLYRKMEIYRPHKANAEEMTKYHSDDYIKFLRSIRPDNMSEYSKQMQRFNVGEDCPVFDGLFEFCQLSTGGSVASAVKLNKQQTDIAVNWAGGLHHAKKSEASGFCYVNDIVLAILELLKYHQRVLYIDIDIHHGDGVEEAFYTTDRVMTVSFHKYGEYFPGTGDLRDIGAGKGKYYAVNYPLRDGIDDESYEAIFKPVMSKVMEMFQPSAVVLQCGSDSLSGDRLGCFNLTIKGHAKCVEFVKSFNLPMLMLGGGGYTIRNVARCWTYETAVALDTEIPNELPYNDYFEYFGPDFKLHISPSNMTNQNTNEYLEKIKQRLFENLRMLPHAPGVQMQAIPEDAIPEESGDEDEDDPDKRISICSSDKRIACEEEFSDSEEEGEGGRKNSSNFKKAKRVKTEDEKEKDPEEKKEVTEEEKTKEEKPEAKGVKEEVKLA

Chain of Histone deacetylase 9 (Q9UKV0 whole entry): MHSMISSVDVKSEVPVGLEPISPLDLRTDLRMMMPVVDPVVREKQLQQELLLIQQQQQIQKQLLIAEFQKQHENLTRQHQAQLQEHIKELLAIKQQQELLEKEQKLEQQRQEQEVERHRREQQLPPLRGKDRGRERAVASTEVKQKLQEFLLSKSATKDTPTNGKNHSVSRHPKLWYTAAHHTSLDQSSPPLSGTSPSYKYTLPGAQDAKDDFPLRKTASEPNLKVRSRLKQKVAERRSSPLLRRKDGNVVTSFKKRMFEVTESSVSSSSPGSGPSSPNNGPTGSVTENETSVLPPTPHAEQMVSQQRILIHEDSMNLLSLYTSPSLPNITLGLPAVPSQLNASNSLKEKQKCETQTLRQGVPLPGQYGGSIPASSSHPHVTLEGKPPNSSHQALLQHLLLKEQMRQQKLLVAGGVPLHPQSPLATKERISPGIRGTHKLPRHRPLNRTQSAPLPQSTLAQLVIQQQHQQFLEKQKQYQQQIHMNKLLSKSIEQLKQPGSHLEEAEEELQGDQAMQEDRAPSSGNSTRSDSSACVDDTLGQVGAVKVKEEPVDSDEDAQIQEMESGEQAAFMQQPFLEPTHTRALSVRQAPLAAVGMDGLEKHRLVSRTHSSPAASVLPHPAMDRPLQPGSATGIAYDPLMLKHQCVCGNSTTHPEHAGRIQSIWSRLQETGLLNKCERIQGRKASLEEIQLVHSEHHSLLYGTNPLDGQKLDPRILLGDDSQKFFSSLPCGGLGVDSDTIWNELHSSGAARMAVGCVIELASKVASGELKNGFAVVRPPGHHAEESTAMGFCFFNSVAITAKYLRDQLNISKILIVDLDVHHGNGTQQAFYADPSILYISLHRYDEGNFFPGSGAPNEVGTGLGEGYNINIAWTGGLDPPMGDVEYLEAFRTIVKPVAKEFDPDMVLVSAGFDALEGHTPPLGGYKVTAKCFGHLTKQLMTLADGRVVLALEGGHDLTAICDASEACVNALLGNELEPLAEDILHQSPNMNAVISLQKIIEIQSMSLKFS

What does the source list for `O=C(CCCCCCC(=O)Nc1ccc([C@H]2O[C@@H](CSc3ccncc3)C[C@@H](c3ccccc3)O2)cc1)NO`?
Ki (Histone deacetylase 9): 6.1 µM; Ki [1]: 0.028 µM; Ki (Histone deacetylase 1): 0.088 µM
